Test results reported in ChEMBL document CHEMBL1157058, “3D-QSAR studies on quinazoline antifolate thymidylate synthase inhibitors by CoMFA and CoMSIA models” (Eur J Med Chem, 2010).
pIC50: −log10 of the molar value.

target: Thymidylate synthase (Homo sapiens, UniProt P04818); assay: Inhibition of thymidylate synthase
Sequence (P04818 whole entry): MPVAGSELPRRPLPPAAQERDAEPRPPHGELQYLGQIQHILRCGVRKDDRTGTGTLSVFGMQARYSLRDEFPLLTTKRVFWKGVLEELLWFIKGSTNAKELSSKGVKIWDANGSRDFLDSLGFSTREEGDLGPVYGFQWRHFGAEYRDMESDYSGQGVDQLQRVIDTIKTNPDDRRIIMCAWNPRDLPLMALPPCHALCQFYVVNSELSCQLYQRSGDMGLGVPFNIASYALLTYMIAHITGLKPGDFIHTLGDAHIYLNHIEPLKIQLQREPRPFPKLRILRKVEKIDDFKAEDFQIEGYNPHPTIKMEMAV

`Cc1nc2ccc(CN(CCCO)c3ccc(C(=O)N[C@@H](CCC(=O)O)C(=O)O)cc3)cc2c(=O)[nH]1` and `Cc1nc2ccc(CN(CCO)c3ccc(C(=O)N[C@@H](CCC(=O)O)C(=O)O)cc3)cc2c(=O)[nH]1` are within 0.2 log units of each other in pIC50: 6.27 for the first, 6.30 for the second.

Going from `CN(Cc1ccc2nc(CF)[nH]c(=O)c2c1)c1ccc(C(=O)N[C@@H](CCC(=O)O)C(=O)O)cc1` to `Cc1nc2ccc(CN(C)c3ccc(C(=O)N[C@@H](CCC(=O)O)C(=O)O)cc3)cc2c(=O)[nH]1`, the pIC50 rises from 5.54 to 6.52 (0.98 log units).

Going from `C#CCN(Cc1ccc2nc(C)[nH]c(=O)c2c1)c1ccc(C(=O)N[C@@H](CCC(=O)O)C(=O)O)cc1F` to `CCN(Cc1ccc2nc(C)[nH]c(=O)c2c1)c1ccc(C(=O)N[C@@H](CCC(=O)O)C(=O)O)cc1F`, the pIC50 rises from 5.84 to 6.17 (0.33 log units). The second is the more potent here.

Compared with `Cc1nc2ccc(CN(CCCO)c3ccc(C(=O)N[C@@H](CCC(=O)O)C(=O)O)s3)cc2c(=O)[nH]1`, `Cc1nc2ccc(CN(CCO)c3ccc(C(=O)N[C@@H](CCC(=O)O)C(=O)O)s3)cc2c(=O)[nH]1` is 0.45 log units higher in pIC50: 5.47 for the first, 5.92 for the second.

Going from `Cc1nc2ccc(CN(CCF)c3ccc(C(=O)N[C@@H](CCC(=O)O)C(=O)O)c(F)c3)cc2c(=O)[nH]1` to `Cc1nc2ccc(CN(CCN)c3ccc(C(=O)N[C@@H](CCC(=O)O)C(=O)O)c(F)c3)cc2c(=O)[nH]1`, the pIC50 falls from 7.37 to 4.93 (2.44 log units). The first is the more potent here.

`C#CCN(Cc1ccc2nc(C)[nH]c(=O)c2c1)c1ccc(C(=O)N[C@@H](CCC(=O)O)C(=O)O)c([N+](=O)[O-])c1` and `CCN(Cc1ccc2nc(C)[nH]c(=O)c2c1)c1ccc(C(=O)N[C@@H](CCC(=O)O)C(=O)O)c([N+](=O)[O-])c1` are within 0.2 log units of each other in pIC50: 6.89 for the first, 6.84 for the second.

Going from `Cc1nc2ccc(CN(CCCO)c3ccc(C(=O)N[C@@H](CCC(=O)O)C(=O)O)cc3F)cc2c(=O)[nH]1` to `Cc1nc2ccc(CN(CCO)c3ccc(C(=O)N[C@@H](CCC(=O)O)C(=O)O)cc3F)cc2c(=O)[nH]1`, the pIC50 falls from 6.01 to 5.45 (0.56 log units).

Compared with `C#CCN(Cc1ccc2nc(N)[nH]c(=O)c2c1)c1ccc(C(=O)N[C@@H](CCC(=O)O)C(=O)O)c(F)c1`, `C#CCN(Cc1ccc2nc(C)[nH]c(=O)c2c1)c1ccc(C(=O)N[C@@H](CCC(=O)O)C(=O)O)c(F)c1` is 0.35 log units lower in pIC50: 8.05 for the first, 7.70 for the second. The first is the more potent here.

First: Cc1nc2ccc(CNc3ccc(C(=O)N[C@@H](CCC(=O)O)C(=O)O)c(F)c3)cc2c(=O)[nH]1
Second: Cc1nc2ccc(CNc3ccc(C(=O)N[C@@H](CCC(=O)O)C(=O)O)cc3F)cc2c(=O)[nH]1
The pIC50 of the first is 0.39 log units higher: 5.42 for the first, 5.03 for the second. The first is the more potent here.

Compared with `C#CCN(Cc1ccc2nc(C)[nH]c(=O)c2c1)c1ccc(C(=O)N[C@@H](CCC(=O)O)C(=O)O)c(C(F)(F)F)c1`, `C#CCN(Cc1ccc2nc(C)[nH]c(=O)c2c1)c1ccc(C(=O)N[C@@H](CCC(=O)O)C(=O)O)c(Cl)c1` is 0.81 log units higher in pIC50: 6.32 for the first, 7.13 for the second. The second is the more potent here.

Going from `Cc1nc2ccc(CN(CC#N)c3ccc(C(=O)N[C@@H](CCC(=O)O)C(=O)O)s3)cc2c(=O)[nH]1` to `C#CCN(Cc1ccc2nc(C)[nH]c(=O)c2c1)c1ccc(C(=O)N[C@@H](CCC(=O)O)C(=O)O)s1`, the pIC50 rises from 5.51 to 6.36 (0.85 log units).

Going from `CCN(Cc1ccc2nc(C)[nH]c(=O)c2c1)c1ccc(C(=O)N[C@@H](CCC(=O)O)C(=O)O)c(F)c1` to `CCN(Cc1ccc2nc(C)[nH]c(=O)c2c1)c1ccc(C(=O)N[C@@H](CCC(=O)O)C(=O)O)c(C)c1`, the pIC50 falls from 7.35 to 6.50 (0.85 log units). The first is the more potent here.

First: C#CCN(Cc1ccc2nc(C)[nH]c(=O)c2c1)c1ccc(C(=O)N[C@@H](CCC(=O)O)C(=O)O)c(N)c1
Second: C#CCN(Cc1ccc2nc(C)[nH]c(=O)c2c1)c1ccc(C(=O)N[C@@H](CCC(=O)O)C(=O)O)c(O)c1
The pIC50 of the first is 0.51 log units lower: 6.54 for the first, 7.05 for the second.

First: Cc1nc2ccc(CN(C)c3cnc(C(=O)N[C@@H](CCC(=O)O)C(=O)O)nc3)cc2c(=O)[nH]1
Second: Cc1nc2ccc(CN(C)c3ccc(C(=O)N[C@@H](CCC(=O)O)C(=O)O)nc3)cc2c(=O)[nH]1
The pIC50 of the first is 0.83 log units lower: 5.63 for the first, 6.46 for the second. The second is the more potent here.

Compared with `C=CCN(Cc1ccc2nc(C)[nH]c(=O)c2c1)c1ccc(C(=O)N[C@@H](CCC(=O)O)C(=O)O)cc1F`, `Cc1nc2ccc(CN(CCF)c3ccc(C(=O)N[C@@H](CCC(=O)O)C(=O)O)cc3F)cc2c(=O)[nH]1` is 0.47 log units higher in pIC50: 5.29 for the first, 5.76 for the second. The second is the more potent here.

First: Cc1nc2ccc(CNc3ccc(C(=O)N[C@@H](CCC(=O)O)C(=O)O)cc3)cc2c(=O)[nH]1
Second: CCc1nc2ccc(CNc3ccc(C(=O)N[C@@H](CCC(=O)O)C(=O)O)cc3)cc2c(=O)[nH]1
The pIC50 of the first is 0.65 log units higher: 5.35 for the first, 4.70 for the second. The first is the more potent here.

Going from `Cc1nc2ccc(CN(C)c3ccc(C(=O)N[C@@H](CCC(=O)O)C(=O)O)c(C)c3)cc2c(=O)[nH]1` to `Cc1nc2ccc(CN(C)c3ccc(C(=O)N[C@@H](CCC(=O)O)C(=O)O)c(F)c3)cc2c(=O)[nH]1`, the pIC50 rises from 6.03 to 6.92 (0.89 log units). The second is the more potent here.

Compared with `Cc1nc2ccc(CN(CC#N)c3ccc(C(=O)N[C@@H](CCC(=O)O)C(=O)O)c(F)c3)cc2c(=O)[nH]1`, `C=CCN(Cc1ccc2nc(C)[nH]c(=O)c2c1)c1ccc(C(=O)N[C@@H](CCC(=O)O)C(=O)O)c(F)c1` is 0.35 log units higher in pIC50: 6.77 for the first, 7.12 for the second.

Compared with `CCCN(Cc1ccc2nc(C)[nH]c(=O)c2c1)c1ccc(C(=O)N[C@@H](CCC(=O)O)C(=O)O)s1`, `CCN(Cc1ccc2nc(C)[nH]c(=O)c2c1)c1ccc(C(=O)N[C@@H](CCC(=O)O)C(=O)O)s1` is 0.51 log units higher in pIC50: 5.73 for the first, 6.24 for the second. The second is the more potent here.

First: CCN(Cc1ccc2nc(C)[nH]c(=O)c2c1)c1ccc(C(=O)N[C@@H](CCC(=O)O)C(=O)O)c(OC)c1
Second: C#CCN(Cc1ccc2nc(C)[nH]c(=O)c2c1)c1ccc(C(=O)N[C@@H](CCC(=O)O)C(=O)O)c(OC)c1
The pIC50 of the first is 0.45 log units lower: 6.72 for the first, 7.17 for the second.

Compared with `Cc1nc2ccc(CN(CCF)c3ccc(C(=O)N[C@@H](CCC(=O)O)C(=O)O)s3)cc2c(=O)[nH]1`, `C=CCN(Cc1ccc2nc(C)[nH]c(=O)c2c1)c1ccc(C(=O)N[C@@H](CCC(=O)O)C(=O)O)s1` is 0.48 log units lower in pIC50: 6.26 for the first, 5.78 for the second.

Compared with `C=CCN(Cc1ccc2nc(C)[nH]c(=O)c2c1)c1ccc(C(=O)N[C@@H](CCC(=O)O)C(=O)O)nc1`, `CCN(Cc1ccc2nc(C)[nH]c(=O)c2c1)c1ccc(C(=O)N[C@@H](CCC(=O)O)C(=O)O)nc1` is 0.70 log units higher in pIC50: 6.12 for the first, 6.82 for the second.

First: C#CCN(Cc1ccc2nc(OC)[nH]c(=O)c2c1)c1ccc(C(=O)N[C@@H](CCC(=O)O)C(=O)O)c(F)c1
Second: C#CCN(Cc1ccc2nc[nH]c(=O)c2c1)c1ccc(C(=O)N[C@@H](CCC(=O)O)C(=O)O)c(F)c1
The pIC50 of the first is 0.20 log units higher: 7.44 for the first, 7.24 for the second. The first is the more potent here.

Compared with `Cc1nc2ccc(CN(CCO)c3ccc(C(=O)N[C@@H](CCC(=O)O)C(=O)O)c(F)c3)cc2c(=O)[nH]1`, `Cc1nc2ccc(CN(CCCO)c3ccc(C(=O)N[C@@H](CCC(=O)O)C(=O)O)c(F)c3)cc2c(=O)[nH]1` is 0.88 log units lower in pIC50: 7.11 for the first, 6.23 for the second.

`COCCCN(Cc1ccc2nc(C)[nH]c(=O)c2c1)c1ccc(C(=O)N[C@@H](CCC(=O)O)C(=O)O)cc1` and `COCCN(Cc1ccc2nc(C)[nH]c(=O)c2c1)c1ccc(C(=O)N[C@@H](CCC(=O)O)C(=O)O)cc1` are within 0.2 log units of each other in pIC50: 4.89 for the first, 4.79 for the second.

Going from `Cc1nc2ccc(CNc3cnc(C(=O)N[C@@H](CCC(=O)O)C(=O)O)s3)cc2c(=O)[nH]1` to `Cc1nc2ccc(CNc3ccc(C(=O)N[C@@H](CCC(=O)O)C(=O)O)s3)cc2c(=O)[nH]1`, the pIC50 falls from 5.15 to 4.61 (0.54 log units). The first is the more potent here.

Going from `CCN(Cc1ccc2nc(C)[nH]c(=O)c2c1)c1ccc(C(=O)N[C@@H](CCC(=O)O)C(=O)O)c(N)c1` to `CCN(Cc1ccc2nc(C)[nH]c(=O)c2c1)c1ccc(C(=O)N[C@@H](CCC(=O)O)C(=O)O)c(Cl)c1`, the pIC50 rises from 6.51 to 6.92 (0.41 log units).

Compared with `CC(=O)CN(Cc1ccc2nc(C)[nH]c(=O)c2c1)c1ccc(C(=O)N[C@@H](CCC(=O)O)C(=O)O)cc1`, `CCN(Cc1ccc2nc(C)[nH]c(=O)c2c1)c1ccc(C(=O)N[C@@H](CCC(=O)O)C(=O)O)cc1` is 2.17 log units higher in pIC50: 4.60 for the first, 6.77 for the second.

Compared with `Cc1nc2ccc(CN(CCBr)c3ccc(C(=O)N[C@@H](CCC(=O)O)C(=O)O)cc3)cc2c(=O)[nH]1`, `Cc1nc2ccc(CN(CCF)c3ccc(C(=O)N[C@@H](CCC(=O)O)C(=O)O)cc3)cc2c(=O)[nH]1` is 0.73 log units higher in pIC50: 5.89 for the first, 6.62 for the second. The second is the more potent here.

First: Cc1nc2ccc(CN(CCCO)c3cnc(C(=O)N[C@@H](CCC(=O)O)C(=O)O)s3)cc2c(=O)[nH]1
Second: Cc1nc2ccc(CN(CCO)c3cnc(C(=O)N[C@@H](CCC(=O)O)C(=O)O)s3)cc2c(=O)[nH]1
The pIC50 of the first is 0.62 log units lower: 5.76 for the first, 6.38 for the second. The second is the more potent here.

`CCN(Cc1ccc2nc(C)[nH]c(=O)c2c1)c1cnc(C(=O)N[C@@H](CCC(=O)O)C(=O)O)s1` and `C#CCN(Cc1ccc2nc(C)[nH]c(=O)c2c1)c1cnc(C(=O)N[C@@H](CCC(=O)O)C(=O)O)s1` are the same in pIC50: 6.64 for the first, 6.64 for the second.

Going from `Cc1nc2ccc(CN(CCS)c3ccc(C(=O)N[C@@H](CCC(=O)O)C(=O)O)cc3)cc2c(=O)[nH]1` to `C=CCN(Cc1ccc2nc(C)[nH]c(=O)c2c1)c1ccc(C(=O)N[C@@H](CCC(=O)O)C(=O)O)cc1`, the pIC50 rises from 5.75 to 6.32 (0.57 log units).

Compared with `Cc1nc2ccc(CN(C)c3ccc(C(=O)N[C@@H](CCC(=O)O)C(=O)O)cn3)cc2c(=O)[nH]1`, `Cc1nc2ccc(CN(C)c3ccc(C(=O)N[C@@H](CCC(=O)O)C(=O)O)cc3F)cc2c(=O)[nH]1` is 0.57 log units higher in pIC50: 5.37 for the first, 5.94 for the second.

Compared with `Cc1nc2ccc(CN(CC(N)=O)c3ccc(C(=O)N[C@@H](CCC(=O)O)C(=O)O)c(F)c3)cc2c(=O)[nH]1`, `Cc1nc2ccc(CN(C)c3ccc(C(=O)N[C@@H](CCC(=O)O)C(=O)O)c(N)c3)cc2c(=O)[nH]1` is 0.20 log units higher in pIC50: 5.87 for the first, 6.07 for the second. The second is the more potent here.

First: Cc1nc2ccc(CN(C)c3cnc(C(=O)N[C@@H](CCC(=O)O)C(=O)O)s3)cc2c(=O)[nH]1
Second: Cc1nc2ccc(CN(CCF)c3cnc(C(=O)N[C@@H](CCC(=O)O)C(=O)O)s3)cc2c(=O)[nH]1
The pIC50 of the first is 0.34 log units lower: 6.38 for the first, 6.72 for the second. The second is the more potent here.

`CCN(Cc1ccc2nc(C)[nH]c(=O)c2c1)c1ncc(C(=O)N[C@@H](CCC(=O)O)C(=O)O)s1` and `CCN(Cc1ccc2nc(C)[nH]c(=O)c2c1)c1nnc(C(=O)N[C@@H](CCC(=O)O)C(=O)O)s1` are within 0.2 log units of each other in pIC50: 6.12 for the first, 6.03 for the second.

Going from `C#CCN(Cc1ccc2nc(C)[nH]c(=O)c2c1)c1ccc(C(=O)N[C@@H](CCC(=O)O)C(=O)O)c(C)c1` to `C#CCN(Cc1ccc2nc(C)[nH]c(=O)c2c1)c1ccc(C(=O)N[C@@H](CCC(=O)O)C(=O)O)nc1`, the pIC50 rises from 6.30 to 7.40 (1.10 log units).

Compared with `C=CCN(Cc1ccc2nc(C)[nH]c(=O)c2c1)c1cnc(C(=O)N[C@@H](CCC(=O)O)C(=O)O)s1`, `Cc1nc2ccc(CN(CCF)c3ccc(C(=O)N[C@@H](CCC(=O)O)C(=O)O)nc3)cc2c(=O)[nH]1` is 0.83 log units higher in pIC50: 5.97 for the first, 6.80 for the second.
